The values below come from PubChem BioAssay (NCI).

Test systems include A498 renal; CAKI-1 renal; DU-145 prostate; HL-60(TB) leukemia; HS 578T breast; LOX IMVI melanoma; OVCAR-4 ovarian; RPMI-8226 leukemia; SF-539 CNS; SK-MEL-2 melanoma; SW-620 colon.
Holding throughout (test): growth of human tumour cells (NCI), 48 h

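Cultured in 96-well plates, cells were exposed to test compound for 48 hours across five concentrations. Definition used: TGI = concentration required for complete inhibition of growth.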 A value given as a limit tells only on which side of the number the result lay.

For `Cc1cccc(CC(Cc2c(C)cccc2C(=O)O)C(=O)O)c1` (centres undefined), the TGI in the experiment with A498 renal, in the experiment with CAKI-1 renal, in the experiment on DU-145 prostate, in the experiment with HL-60(TB) leukemia, in the experiment on HS 578T breast and in the experiment with LOX IMVI melanoma was greater than 100 µM in each case. Moreover, the TGI in the experiment with OVCAR-4 ovarian, in the experiment on RPMI-8226 leukemia, in the experiment on SF-539 CNS, in the experiment with SK-MEL-2 melanoma and in the experiment with SW-620 colon was greater than 100 µM each time.
With `CCN(CC)C(=S)SS(=O)(=O)c1ccc(Cl)cc1`, the TGI was greater than 100 µM in the experiment with A498 renal; 43.5 µM in the experiment with CAKI-1 renal; 82 µM with DU-145 prostate; greater than 100 µM with HS 578T breast; 29.2 µM with LOX IMVI melanoma; greater than 100 µM with OVCAR-4 ovarian. Further, the TGI in the experiment with RPMI-8226 leukemia was 43.2 µM; with SF-539 CNS, 43.5 µM; in the experiment on SK-MEL-2 melanoma, greater than 100 µM; in the experiment with SW-620 colon, 37 µM.
For `CC1(C)CC(=O)C2=C(C1)NC1=C(C(=O)CC(C)(C)C1)C2c1ccc([N+](=O)[O-])cc1`, the TGI in the experiment with A498 renal, with CAKI-1 renal, in the experiment on DU-145 prostate, with HL-60(TB) leukemia, in the experiment on HS 578T breast and in the experiment with LOX IMVI melanoma was greater than 100 µM throughout. Besides, the TGI in the experiment on OVCAR-4 ovarian, in the experiment on RPMI-8226 leukemia, with SF-539 CNS, in the experiment with SK-MEL-2 melanoma and with SW-620 colon was greater than 100 µM in each case.
With `Cc1ccc2c(n1)C(=O)C=CC2=O`, the TGI with A498 renal is 31.1 µM; with CAKI-1 renal it was 4.54 µM; in the experiment on DU-145 prostate, 30.7 µM; in the experiment on HL-60(TB) leukemia it was greater than 22.5 µM; with HS 578T breast it was greater than 78.5 µM; in the experiment on LOX IMVI melanoma, 12.6 µM. Further, the TGI in the experiment with OVCAR-4 ovarian was determined as 12.8 µM; in the experiment with RPMI-8226 leukemia it was 11 µM; in the experiment on SF-539 CNS, 35.3 µM; with SK-MEL-2 melanoma, 32.3 µM; in the experiment with SW-620 colon, 8.76 µM.
For `Cc1ccc2c(sc(-c3ccc4c(c3)sc(-c3ccc5c(c3)sc(-c3ccc(N(C)C)cc3)[n+]5C)[n+]4C)[n+]2C)c1S(=O)(=O)O` (tested in a mixture with another compound), the TGI in the experiment on A498 renal, in the experiment with DU-145 prostate, in the experiment with HL-60(TB) leukemia, in the experiment with HS 578T breast, in the experiment with LOX IMVI melanoma and in the experiment on OVCAR-4 ovarian was greater than 100 µM in each case. Besides, the TGI in the experiment on RPMI-8226 leukemia, in the experiment with SF-539 CNS, in the experiment on SK-MEL-2 melanoma and in the experiment on SW-620 colon was greater than 100 µM in each case.
As for `N#CC(C#N)=C(N)/C(C#N)=C/c1ccc2ccccc2n1`, the TGI with A498 renal was greater than 100 µM; with CAKI-1 renal, 65.1 µM; in the experiment on DU-145 prostate, greater than 100 µM; with HS 578T breast it was 65 µM; in the experiment with LOX IMVI melanoma, 46 µM; in the experiment on OVCAR-4 ovarian it was greater than 100 µM. Further, the TGI with RPMI-8226 leukemia and in the experiment on SK-MEL-2 melanoma was greater than 100 µM each time.
Turning to `CCCCSC1=N/C(=C\c2ccc(N(C)C)cc2)C(NN)=N1`, the TGI in the experiment on A498 renal, in the experiment on CAKI-1 renal, in the experiment with DU-145 prostate, with HL-60(TB) leukemia, with HS 578T breast and with LOX IMVI melanoma was greater than 100 µM each time. Besides, the TGI in the experiment with OVCAR-4 ovarian, in the experiment on RPMI-8226 leukemia, with SK-MEL-2 melanoma and in the experiment on SW-620 colon was greater than 100 µM in each case.
In the case of `C/C1=C/C(C)CC(C)OC(=O)C(C)NC(=O)C(Cc2ccc(O)c(I)c2)N(C)C(=O)C(C)NC(=O)C(C)C1` (centres undefined), the TGI in the experiment with A498 renal is less than 0.0137 µM; with DU-145 prostate it was greater than 58.1 µM; with HL-60(TB) leukemia it was less than 0.01 µM; in the experiment on HS 578T breast it was less than 0.0392 µM; in the experiment with LOX IMVI melanoma, less than 0.01 µM; in the experiment on RPMI-8226 leukemia, 10.1 µM. In addition, the values for the TGI in the experiment with SF-539 CNS, in the experiment with SK-MEL-2 melanoma and in the experiment with SW-620 colon were 1.61 µM, 5.67 µM and greater than 100 µM, respectively.
For `Cc1cc(N=Nc2c(O)ccc3ccccc23)ccc1N=Nc1cccc([N+](C)(C)C)c1`, the TGI in the experiment on A498 renal was 98.8 µM; in the experiment on CAKI-1 renal it was 62.9 µM; in the experiment with DU-145 prostate it was 48.2 µM; in the experiment with HS 578T breast it was 47 µM; in the experiment on LOX IMVI melanoma, greater than 40.3 µM; in the experiment on OVCAR-4 ovarian it was greater than 100 µM. Moreover, the TGI is greater than 46.5 µM in the experiment with RPMI-8226 leukemia, 22.3 µM with SF-539 CNS, 47.3 µM in the experiment on SK-MEL-2 melanoma and 46.9 µM in the experiment with SW-620 colon.
As for `CCN(CC)CCNC(=O)c1ccc(I)cc1`, the TGI with A498 renal is 84.9 µM; in the experiment with CAKI-1 renal, greater than 100 µM; in the experiment with DU-145 prostate, greater than 100 µM; in the experiment with HS 578T breast, greater than 100 µM; in the experiment with LOX IMVI melanoma it was greater than 100 µM; in the experiment on OVCAR-4 ovarian it was greater than 100 µM. Further, the TGI in the experiment on RPMI-8226 leukemia, in the experiment with SF-539 CNS, in the experiment on SK-MEL-2 melanoma and in the experiment on SW-620 colon was greater than 100 µM in each case.
For `COC(C(=O)C(O)C(C)O)C1CC2C=C3C=C(OC4CC(OC5CC(O)C(OC)C(C)O5)C(OC(C)=O)C(C)O4)C(C)C(=O)C3=C(O)C2=C(O)C1OC1CC(OC2CC(OC3CC(C)(O)C(OC(=O)C(C)C)C(C)O3)C(O)C(C)O2)C(O)C(C)O1` (centres undefined), the TGI in the experiment on A498 renal was less than 0.01 µM; in the experiment on CAKI-1 renal, greater than 100 µM; with DU-145 prostate it was less than 0.01 µM; with HL-60(TB) leukemia it was less than 0.01 µM; with HS 578T breast, less than 0.01 µM; with OVCAR-4 ovarian, greater than 100 µM. The TGI with RPMI-8226 leukemia, in the experiment on SF-539 CNS and in the experiment on SK-MEL-2 melanoma was less than 0.01 µM in each case.
Consider `O=C(Nc1c(C(F)(F)F)cc(-c2ccccc2)[nH]c1=O)N1CCOCC1`, for which the TGI with A498 renal was greater than 100 µM; in the experiment on CAKI-1 renal, greater than 100 µM; with DU-145 prostate, greater than 100 µM; in the experiment with HL-60(TB) leukemia, 79.5 µM; with HS 578T breast, greater than 100 µM; with LOX IMVI melanoma it was greater than 100 µM. Also, the TGI in the experiment on OVCAR-4 ovarian, in the experiment with RPMI-8226 leukemia, in the experiment on SK-MEL-2 melanoma and in the experiment on SW-620 colon was greater than 100 µM each time.
Take `OC[C@]1(n2nc3ccccc3n2)OC[C@@H]1c1ccccc1`: the TGI in the experiment on A498 renal is greater than 100 µM; in the experiment with CAKI-1 renal, greater than 100 µM; in the experiment with DU-145 prostate, greater than 100 µM; in the experiment on HL-60(TB) leukemia, 93.9 µM; with HS 578T breast, greater than 100 µM; in the experiment on LOX IMVI melanoma it was greater than 100 µM. Further, the TGI in the experiment on OVCAR-4 ovarian was 70.7 µM; in the experiment on RPMI-8226 leukemia it was 97.4 µM; with SF-539 CNS it was 69.2 µM; in the experiment with SK-MEL-2 melanoma, greater than 100 µM.
